Test results reported in ChEMBL document CHEMBL5338769, “Discovery of Norisoboldine Analogue III11 as a Novel and Potent Aryl Hydrocarbon Receptor Agonist for the Treatment of Ulcerative Colitis” (J Med Chem, 2023).
One block for each compound: values may come before it. Calls of active or inactive are those of the source. The rule behind the calls is not given here.

How the values were obtained:
[1] = biological target: T1, Aryl hydrocarbon receptor (Mus musculus, UniProt P30561); experiment: Activation of AhR transcription in C57BL/6 mouse naive T cells assessed as increase in UGT1A1 mRNA expression at 1 to 3 uM by qRT-PCR analysis; type: cell-based; settings: t cell, dose 1-3 µM
T1 sequence (P30561 whole entry): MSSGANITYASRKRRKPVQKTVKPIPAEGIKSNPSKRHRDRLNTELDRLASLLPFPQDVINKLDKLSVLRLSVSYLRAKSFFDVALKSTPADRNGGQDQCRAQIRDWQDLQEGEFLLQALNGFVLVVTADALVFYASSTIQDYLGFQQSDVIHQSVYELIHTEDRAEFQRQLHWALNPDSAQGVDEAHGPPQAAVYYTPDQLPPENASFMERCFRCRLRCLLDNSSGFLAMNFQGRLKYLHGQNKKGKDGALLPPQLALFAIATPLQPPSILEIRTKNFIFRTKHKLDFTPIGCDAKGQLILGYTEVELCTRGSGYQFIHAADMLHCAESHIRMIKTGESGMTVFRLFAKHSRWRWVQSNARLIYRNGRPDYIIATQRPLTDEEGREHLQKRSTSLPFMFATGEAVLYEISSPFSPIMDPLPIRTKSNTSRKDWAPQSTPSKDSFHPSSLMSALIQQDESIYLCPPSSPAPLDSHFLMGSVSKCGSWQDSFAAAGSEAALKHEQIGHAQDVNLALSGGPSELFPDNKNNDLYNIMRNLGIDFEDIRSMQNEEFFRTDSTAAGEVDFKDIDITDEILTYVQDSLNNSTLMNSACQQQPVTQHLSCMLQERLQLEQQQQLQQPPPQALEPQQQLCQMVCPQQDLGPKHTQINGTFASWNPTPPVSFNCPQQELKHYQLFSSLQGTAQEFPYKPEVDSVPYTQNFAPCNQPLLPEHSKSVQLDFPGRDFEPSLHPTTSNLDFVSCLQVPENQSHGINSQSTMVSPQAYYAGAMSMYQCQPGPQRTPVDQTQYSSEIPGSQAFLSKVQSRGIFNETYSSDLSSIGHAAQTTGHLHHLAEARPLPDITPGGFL

[2] = biological target: T1, Aryl hydrocarbon receptor; experiment: Activation of AhR transcription in C57BL/6 mouse naive T cells assessed as increase in AhRR mRNA expression at 1 to 3 uM by qRT-PCR analysis; type: cell-based; settings: t cell, dose 1-3 µM
[3] = biological target: T1, Aryl hydrocarbon receptor; experiment: Activation of AhR transcription in C57BL/6 mouse naive T cells assessed as increase in CYP1A1 mRNA expression at 1 to 3 uM by qRT-PCR analysis; type: cell-based; settings: t cell, dose 1-3 µM
EL4 = experiment: Cytotoxicity against mouse EL4 cells assessed as inhibition of cell proliferation incubated for 72 hrs by MTT assay; type: functional, cell-based; settings: EL4, 72 h
[4] = biological target: T1, Aryl hydrocarbon receptor; experiment: Activation of AhR transcription in C57BL/6 mouse naive T cells assessed as increase in CYP1B1 mRNA expression at 1 to 3 uM by qRT-PCR analysis; type: cell-based; settings: t cell, dose 1-3 µM
[5] = biological target: T1, Aryl hydrocarbon receptor; experiment: Activation of AhR transcription in C57BL/6 mouse naive T cells assessed as increase in CYP1A1 mRNA expression at 1 to 3 uM measured after 72 hrs by qRT-PCR analysis; type: cell-based; settings: t cell, dose 1-3 µM
Regulatory T cell [6] = experiment: Induction of cell differentiation in C57BL/6 mouse naive regulatory T cells assessed as increase in IL-10 mRNA level at 3 uM incubated for 72 hrs by qRT-PCR analysis; type: functional, cell-based
[7] = Induction of cell differentiation in C57BL/6 mouse naive regulatory T cells assessed as increase in cell frequency at 30 uM incubated for 72 hrs by flow cytometric analysis (reference value: 24.9%); type: functional
Regulatory T cell [8] = experiment: Induction of cell differentiation in C57BL/6 mouse naive regulatory T cells assessed as increase in […] mRNA level at 3 uM incubated for 72 hrs by qRT-PCR analysis; type: functional, cell-based
Regulatory T cell [9] = experiment: Induction of cell differentiation in C57BL/6 mouse naive regulatory T cells at 10 uM incubated for 72 hrs by flow cytometric analysis; type: functional, cell-based
[10] = AUC(0 to infinity) in Sprague-Dawley rat at 3 mg/kg, iv measured upto 1440 min by LC-MS/MS analysis; type: ADME, organism-based; parameters: dose 3 mg/kg, time < 1440 min, route iv; settings: in vivo
Mus musculus [11] = experiment: In vivo activation of AhR in C57BL/6 mouse assessed as increase in CYP1A1 mRNA expression at 10 to 20 mg/kg, po administered once a day for 10 days by qRT-PCR analysis; type: functional, organism-based; settings: dose 10-20 mg/kg, time 10.0 day
[12] = Protein binding in rat plasma at 10.67 ug/ml of total concentration measured after 12 hrs by ultrafiltration based HPLC analysis; type: ADME, cell-free; settings: at 10.67 µg/mL, read-out: PPB (converted)
[13] = Half-life in Sprague-Dawley rat at 3 mg/kg, iv measured upto 1440 min by LC-MS/MS analysis; type: ADME, organism-based; settings: in vivo
[14] = Unbound drug concentration in rat plasma at 37.38 ug/ml of total concentration measured after 12 hrs by ultrafiltration based HPLC analysis; type: ADME, cell-free; settings: dose 37.38 µg/ml
[15] = Cmax in Sprague-Dawley rat at 30 mg/kg, po measured at 120 min by LC-MS/MS analysis; type: ADME, organism-based; parameters: dose 30 mg/kg, time 120 min, route po; settings: in vivo
[16] = Apparent oral clearance in Sprague-Dawley rat at 30 mg/kg measured upto 1440 min by LC-MS/MS analysis; type: ADME, organism-based; settings: in vivo, 24 h
Mus musculus [17] = experiment: Anti-colitis activity in DSS-induced ulcerative colitis C57BL/6 mouse model assessed as CD4+CD25+Foxp3+ Treg cell percentage in spleen at 20 mg/kg, po administered once a day for 10 days by flow cytometric analysis (reference value: 3.3%); type: functional; settings: time 10 day
Mus musculus [18] = experiment: Anti-colitis activity in DSS-induced ulcerative colitis C57BL/6 mouse model assessed as increase in CD4+CD25+Foxp3+ Treg cell ratio in mesenteric lymph nodes at 10 mg/kg, po administered once a day for 10 days by flow cytometric analysis (reference value: 4.5 %); type: functional; settings: time 10 day
[19] = Apparent oral clearance in Sprague-Dawley rat at 3 mg/kg, iv measured upto 1440 min by LC-MS/MS analysis; type: ADME, organism-based; settings: in vivo, 24 h
[20] = AUC(0 to infinity) in Sprague-Dawley rat at 30 mg/kg, po measured upto 1440 min by LC-MS/MS analysis; type: ADME, organism-based; parameters: time < 1440 min, dose 30 mg/kg, route po; settings: in vivo
[21] = Half-life in Sprague-Dawley rat at 30 mg/kg, po measured upto 1440 min by LC-MS/MS analysis; type: ADME, organism-based; settings: in vivo
[22] = Unbound drug concentration in rat plasma at 10.67 ug/ml of total concentration measured after 12 hrs by ultrafiltration based HPLC analysis; type: ADME, cell-free; settings: dose 10.67 µg/ml
[23] = Cmax in Sprague-Dawley rat at 3 mg/kg, iv measured at 120 min by LC-MS/MS analysis; type: ADME, organism-based; parameters: time 120 min, dose 3 mg/kg, route iv; settings: in vivo
[24] = MRT in Sprague-Dawley rat at 3 mg/kg, iv measured upto 1440 min by LC-MS/MS analysis; type: ADME, organism-based; settings: in vivo
[25] = Induction of cell differentiation in C57BL/6 mouse naive regulatory T cells assessed as increase in cell frequency at 3 uM incubated for 72 hrs by flow cytometric analysis (reference value: 24.9%); type: functional
[26] = Induction of cell differentiation in C57BL/6 mouse naive regulatory T cells assessed as increase in cell frequency at 1 uM incubated for 72 hrs by flow cytometric analysis (reference value: 24.9%); type: functional
[27] = biological target: T1, Aryl hydrocarbon receptor; experiment: Activation of AhR transcription in C57BL/6 mouse naive T cells assessed as increase in CYP1A1 mRNA expression by measuring fold change at 10 uM measured after 72 hrs by qRT-PCR analysis relative to control; type: cell-based; settings: T-cell, read-out: FC
[28] = Unbound drug concentration in rat plasma at 20.13 ug/ml of total concentration measured after 12 hrs by ultrafiltration based HPLC analysis; type: ADME, cell-free; settings: dose 20.13 µg/ml
[29] = biological target: T1, Aryl hydrocarbon receptor; experiment: Activation of AhR transcription in C57BL/6 mouse naive T cells assessed as increase in CYP1A1 mRNA expression at 10 uM measured after 72 hrs by qRT-PCR analysis relative to control; type: cell-based; settings: t cell
[30] = Oral bioavailability in Sprague-Dawley rat at 30 mg/kg measured upto 1440 min by LC-MS/MS analysis; type: ADME, organism-based; settings: in vivo
Mus musculus [31] = experiment: Anti-colitis activity in DSS-induced ulcerative colitis C57BL/6 mouse model assessed as increase in CD4+CD25+Foxp3+ Treg cell ratio in mesenteric lymph nodes at 20 mg/kg, po administered once a day for 10 days by flow cytometric analysis (reference value: 4.5 %); type: functional; settings: time 10 day
[32] = Tmax in Sprague-Dawley rat at 30 mg/kg, po measured upto 1440 min by LC-MS/MS analysis; type: ADME, organism-based; settings: in vivo
[33] = Induction of cell differentiation in C57BL/6 mouse naive regulatory T cells assessed as increase in cell frequency at 10 uM incubated for 72 hrs by flow cytometric analysis (reference value: 24.9%); type: functional
[34] = MRT in Sprague-Dawley rat at 30 mg/kg, po measured upto 1440 min by LC-MS/MS analysis; type: ADME, organism-based; settings: in vivo
Mus musculus [35] = experiment: Anti-colitis activity in DSS-induced ulcerative colitis C57BL/6 mouse model assessed as CD4+CD25+Foxp3+ Treg cell percentage in spleen at 10 mg/kg, po administered once a day for 10 days by flow cytometric analysis (reference value: 3.3%); type: functional; settings: time 10 day
[36] = biological target: T1, Aryl hydrocarbon receptor; experiment: Activation of AhR transcription in C57BL/6 mouse naive T cells assessed as increase in CYP1A1 mRNA expression at 3 uM measured after 72 hrs by qRT-PCR analysis relative to control; type: cell-based; settings: t cell

Structure (SMILES): COc1cc2c3c(c1OC)-c1ccccc1CC3N(C)CC2 (stereo not drawn) [(+/-)-NUCIFERINE]
Activity [1]: Not Active | Activity [2]: Not Active | Activity [3]: Not Active | IC50 (EL4): 35.9 µM | Activity [4]: Not Active

Activity [5]: Not Active
Structure (SMILES): COc1cccc(CCNC(=O)OCc2ccccc2)c1

Structure (SMILES): COc1cc2c(cc1OC)-c1c(OC)c(OC)cc3c1C(C2)NCC3 (configuration not stated)
Activity [1]: Not Active | Activity [2]: Not Active | Activity [3]: Not Active | IC50 (EL4): 13.9 µM | Activity [4]: Not Active

Structure (SMILES): COc1cc2c(cc1O)CC1NCCc3cc(OC)c(O)c-2c31 (configuration not stated)
Activity (Regulatory T cell [6]): inactive | Activity [7]: 37.8% | Activity (Regulatory T cell [8]): inactive | Activity (Regulatory T cell [9]): Active | AUC(0-inf) [10]: 112 ng·h/mL | Activity (Mus musculus [11]): Active | fraction unbound at 12 h, 10.67 ug/ml [12]: 0.488 | half-life [13]: 14.1 min | Cp(f) [14]: 18360 ng/mL | Cmax [15]: 34.1 ng/mL | CL/F [16]: 0.02 mg/(ng/ml)/min | Activity (Mus musculus [17]): 3.6% | Activity (Mus musculus [18]): 5.6% | CL/F [19]: 0 mg/(ng/ml)/min | AUC(0-inf) [20]: 27.8 ng·h/mL | half-life [21]: 23.3 min | Cp(f) [22]: 5200 ng/mL | Cmax [23]: 245 ng/mL | MRT [24]: 20.6 min | Activity [25]: 26.6% | Activity [26]: 25.4% | fold induction at 10 µM [27]: 2.1 | Cp(f) [28]: 10020 ng/mL | Activity [29]: 208.3% | bioavailability [30]: 2.49% | Activity (Mus musculus [31]): 6% | Tmax [32]: 16 min | Activity [33]: 32% | MRT [34]: 42.2 min | Activity (Mus musculus [35]): 3% | IC50 (EL4): 80 µM

Activity [5]: Not Active
Structure (SMILES): COc1ccc2c(c1)CCN(C(=O)OCc1ccccc1)C2Cc1cc(OCc2ccccc2)ccc1Br (configuration not stated)

Structure (SMILES): COc1ccc2c(c1)-c1c(OC)c(OC)cc3c1C(C2)NCC3 (configuration not stated)
Activity [36]: 177% | IC50 (EL4): 20.7 µM

Activity [5]: Not Active
Structure (SMILES): O=Cc1cc(OCc2ccccc2)ccc1Br

Structure (SMILES): COc1cc2c(cc1O)CC1c3c(cc(O)c(OC)c3-2)CCN1C (configuration not stated)
Activity [36]: 222% | IC50 (EL4): 70.1 µM

Structure (SMILES): COc1cc2c3c(c1OC)-c1ccc(O)cc1CC3NCC2 (configuration not stated)
Activity [36]: 150.7% | IC50 (EL4): 64.4 µM

Structure (SMILES): COc1ccc2c(c1)CC1NCCc3cc(OC)c(OC)c-2c31 (configuration not stated)
Activity [36]: 152.7% | IC50 (EL4): 10.8 µM
